Results reported in patent US9668988B2, “Controlled release oral pharmaceutical dosage forms comprising MGBG” (Pathologica LLC, priority 2011, dated 2017).

Legend:
[1] = Multi-species allometric scaling to predict human pharmacokinetic parameters; parameters: species or system humans; details: predicted human, ORAL, based on Mouse, Dog, Rhesus
Description: Multi-species allometric scaling based on pharmacokinetic parameters was employed to calculate predicted pharmacokinetic parameters in humans according to methods known in the art. See, e.g., Ings R M, “Interspecies scaling and comparisons in drug development and toxicokinetics,” Xenobiotica, 1990 November; 20(11):1201-31 and Khor, S P et al., “Dihydropyrimidine dehydrogenase inactivation and 5-fluorouracil pharmacokinetics: allometric scaling of animal data, pharmacokinetics and toxicodynamics of 5-fluorouracil in humans,” Cancer Chemother Pharmacol (1997) 39(3): 833-38. Expected values are given below in Table 2.

[2] = system: carrageenan-induced paw edema; experiment: murine carrageenan-induced paw edema model; assay type: in vivo, mice; details: PO BID (totaling 60 mg/kg/day)
Description: (§1) In both the murine carrageenan-induced paw edema and hyperalgesia models, the top efficacious dose of MGBG is 30 mg/kg PO BID (totaling 60 mg/kg/day). Based upon this dosing paradigm in mice, at least two methods to estimate the equivalent dosing in humans may be used.
(§2) In the murine carrageenan models, we also observed efficacy of MGBG at lower doses, including 3 mg/kg PO BID and 10 mg/kg PO BID, which would proportionally convert to human doses of ˜0.42 mg/kg/day and ˜1.2 mg/kg/day.

[3] = system: carrageenan-induced hyperalgesia; experiment: murine carrageenan-induced hyperalgesia model; assay type: in vivo, mice; details: PO BID (totaling 60 mg/kg/day)
Description: as §1, §2

[4] = system: beagle dogs; experiment: In vivo evaluation of enterically coated capsules: tolerability / clinical observations; details: single oral doses 10, 30, 100 mg/kg
Description: A comparative study of single, escalating doses of enterically coated MGBG capsules was undertaken in order to ascertain the feasibility and pharmacologic effect of delaying release of MGBG until the capsule has passed the stomach. […] Six male beagle dogs aged approximately 4 years 8 months to 5 years 6 months and weighing 10.95 to 12.85 kg (Covance Research Products) were weighed, acclimatized, and randomly assigned to treatment groups as shown below in Table 5.
The test article was administered once at each dose level during the study orally via capsule. Duplicate sets of enteric-coated capsules were prepared for each animal at each dose and evaluated for dissolution. The duplicate sample was placed in a 0.1 N HCl solution, and stirred using a magnetic stir bar and stir plate, for at least two hours. Triplicate samples of the acidic dissolution media were collected for analysis of MGBG content. The capsule was transferred to a phosphate buffer solution (pH 6.8), and stirred using a magnetic stir bar and stir plate, for approximately one hour. The capsule was visually inspected for signs of deformation. […]
Observations for morbidity, mortality, injury, and the availability of food and water were conducted twice daily for all animals. […] On occasion, clinical observations were recorded at unscheduled intervals. Body weights were measured and recorded on Days 1-4, 5, 12, and 32.

CC(/C=N/NC(=N)N)=N\NC(=N)N [MGBG, 1,1′[methylethanediylidene]dinitrilodiguanidine]
CL/F [1]: 20.9 mL/min/kg | V/F [1]: 41.6 L/kg | t1/2 [1]: 23.0 h | CL/F ([1]; Rat): 21.0 mL/min/kg | V/F ([1]; Rat): 42.4 L/kg | t1/2 ([1]; Rat): 23.3 h | top efficacious dose [2]: 30 mg/kg | top efficacious dose [3]: 30 mg/kg | tolerability / survival [4]: All dose levels were tolerated with all animals surviving to study termination
